Test results taken from US9913849B2, “Treatment of migraines” (Manistee Partners LLC, priority 2014, dated 2018).
Where two headings read alike, the source gives them in different places.

Experiments:
[1] = cited from earlier work
[2] = tested on: subject with a history of migraine headaches; experiment: Migraine case reports, topical administration to the eye(s); format: in vivo, human; details: Example 1: person, 0.0004% single drop in both eyes once per day in the evening, 30 days
Procedure: A subject was treated with ocular administration of travoprost 0.0004% once per day as a single drop in both eyes in the evening. The subject reported that they had no migraines after being on therapy for 30 days.
A person with a fifteen year history of severe migraine headaches refractory to multiple therapies, started treatment with TRAVATAN Z® (travoprost ophthalmic solution) administered topically to one eye daily.
A person with a history of migraine headaches (one per week) was started on daily topical administration of the prostaglandin, XALATAN® (latanoprost ophthalmic solution), to both eyes daily.

[3] = one drop 0.0015% solution once daily into each eye, cited from earlier work
[4] = cited from earlier work; remark: listed apart in the source
[5] = cited from earlier work; remark: listed apart in the source
[6] = blood, days 7 and 14, 0.03% once daily to both eyes

O=C(O)CCC/C=C\C[C@@H]1[C@@H](CC[C@@H](O)CCc2ccccc2)[C@H](O)C[C@@H]1O [acid of latanoprost]
time during which the acid can be measured in aqueous humor ([1]; after local administration): ≤ 4 h | time during which the acid can be measured in plasma ([1]; after local administration): only during the first hour

CC(C)OC(=O)CCC/C=C\C[C@@H]1[C@@H](/C=C/[C@@H](O)COc2cccc(C(F)(F)F)c2)[C@H](O)C[C@@H]1O (relative stereo) [travoprost, [1R-[1α(Z),2β(1E,3R*),3α, 5α]]-7-[3,5-Dihydroxy-2-[3-hydroxy-4-[3-(trifluoromethyl)phenoxy]-1-butenyl]cyclopentyl]-5-heptenoic acid, 1-methylethylester]
migraines reported on therapy [2]: no migraines

O=C(O)CCC/C=C\C[C@@H]1[C@@H](/C=C/C(F)(F)COc2ccccc2)[C@H](O)C[C@@H]1O [tafluprost acid]
mean plasma AUC estimate of tafluprost acid ([3]; Day 1): 394 pg·min/mL | mean plasma Cmax of tafluprost acid ([3]; Day 1): 0.026 ng/mL | mean plasma AUC estimate of tafluprost acid ([3]; Day 8): 432 pg·min/mL | mean plasma Cmax of tafluprost acid ([3]; Day 8): 0.027 ng/mL | median time at which plasma concentrations of tafluprost acid peaked ([3]; healthy volunteers, both Days 1 and 8): 10 min

CC(C)OC(=O)CCC/C=C\C[C@@H]1[C@@H](CC[C@@H](O)CCc2ccccc2)[C@H](O)C[C@@H]1O [Latanoprost, isopropyl-(Z)7[(1R,2R,3R,5S)3,5-dihydroxy-2-[(3R)-3-hydroxy-5-phenylpentyl]cyclopentyl]-5-heptenoate, reference compound]
distribution volume ([1]; in humans): 0.16 ± 0.02 L/kg

CCNC(=O)CCC/C=C\C[C@@H]1[C@@H](/C=C/[C@@H](O)CCc2ccccc2)[C@H](O)C[C@@H]1O [Bimatoprost, (Z)-7-[(1R,2R,3R,5S)-3,5Dihydroxy-2-[(1E,3S)-3-hydroxy-5-phenyl-1-pentenyl]cyclopentyl]-5-N-ethylheptenamide]
mean AUCO-24 hr [4, 6]: ~0.09 ng·h/mL | mean Cmax [4, 6]: approximately 0.08 ng/mL | distribution in human blood ([4]; human blood): resides mainly in the plasma | steady-state volume of distribution ([4]; human, in vivo): 0.67 L/kg | blood concentration (below lower limit of detection) ([4]; in most subjects within 1.5 hours after dosing, 0.03% once daily to both eyes): < 0.025 ng/mL | time at which blood concentrations peaked after dosing ([4]; one drop 0.03% once daily to both eyes, 15 healthy subjects, two weeks): ≤ 10 min

O=C(O)CCC/C=C\C[C@@H]1[C@@H](/C=C/[C@@H](O)COc2cccc(C(F)(F)F)c2)[C@H](O)C[C@@H]1O [travoprost free acid]
mean plasma Cmax ([5]; individuals with quantifiable plasma concentrations (N=38)): 0.018 ± 0.007 ng/mL | plasma concentrations of the free acid (below quantitation limit of the assay) ([5]; single drop daily in both eyes, in two-thirds of the subjects): below 0.01 ng/ml
